Experiments:
ERα [1] = target: T1, ERα (Homo sapiens, UniProt P03372); assay: Estrogen receptor-alpha (ERα) degradation assay in MCF-7 cells using western blot; assay type: cell-based; design: assessed for their activity in degrading ERα in MCF-7 cells via western blot; endogenous in cells; host or cells: MCF7 cells; details: ER-alpha degradation, MCF7 cells, 3 days of incubation
T1 sequence (P03372 1-595): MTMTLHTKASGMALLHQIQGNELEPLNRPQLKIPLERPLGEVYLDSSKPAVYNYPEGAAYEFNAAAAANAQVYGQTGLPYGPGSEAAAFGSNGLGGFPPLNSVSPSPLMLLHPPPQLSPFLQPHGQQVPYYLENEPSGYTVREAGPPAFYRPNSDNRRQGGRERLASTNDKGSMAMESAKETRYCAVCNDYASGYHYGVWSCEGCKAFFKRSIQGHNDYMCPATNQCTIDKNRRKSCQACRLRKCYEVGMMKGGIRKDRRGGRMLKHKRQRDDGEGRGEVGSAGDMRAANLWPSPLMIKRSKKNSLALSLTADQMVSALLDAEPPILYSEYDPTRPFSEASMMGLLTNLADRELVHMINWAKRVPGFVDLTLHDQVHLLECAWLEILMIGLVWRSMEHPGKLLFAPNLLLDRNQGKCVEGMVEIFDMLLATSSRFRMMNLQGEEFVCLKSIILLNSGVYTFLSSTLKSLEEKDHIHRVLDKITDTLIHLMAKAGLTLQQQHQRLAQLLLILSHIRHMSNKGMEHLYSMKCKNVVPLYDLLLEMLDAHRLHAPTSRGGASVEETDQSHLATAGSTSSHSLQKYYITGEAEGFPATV
Description: Compounds prepared in this application were also analyzed for the degradation of ERα in MCF7 and T47D cells.
Estrogen Receptor-Alpha (ERα) Degradation Assay in MCF-7 Cells Using Western Blot Method for Table 4.
The exemplary novel ERα degraders were assessed for their activity in degrading ERα in MCF-7 cells via western blot. The assay was carried out in the presence of 10% fetal bovine serum (FBS) or high percentage of human or mouse serum.
MCF7 cells were grown in DMEM/F12 with 10% fetal bovine serum and seeded at 24,000 cells per well in 100 μl into 96-well clear tissue culture plates. The following day, the cells were treated with PROTACs in a […] concentration curve with 100 nM being the top concentration and serial dilutions to make the other concentrations (30 nM, 10 nM, 3 nM, 1 nM, and 0.3 nM). At all concentrations, 0.01% DMSO is the final concentration in the well. The following day, the plates are aspirated, washed with 50 μl of cold PBS. The cells are lysed with 50 μl/well 4° C. Cell Lysis Buffer (Catalog #9803; Cell Signaling Technology, Danvers, Mass.) (20 mM Tris-HCL (pH 7.5), 150 mM NaCl, 1 mM […], 1 mM EGTA, 1% Triton, 2.5 mM sodium pyrophosphate, 1 mM B-glycerophosphate, 1 mM sodium vanadate, 1 ug/ml leupeptin). Lysates were clarified at 16,000×g for 10 minutes, and 2 μg of protein was subjected to SDS-PAGE analysis and followed by immunoblotting according to standard protocols. The antibodies used were ERα (Cell Signaling Technologies Catalog #8644), and Tubulin (Sigma Catalog #T9026; St. Louis, Mo.). Detection reagents were Clarity Western ECL substrate (Bio-Rad Catalog #170-5060; Hercules, Calif.).
Alternatively, MCF7 cells were grown in DMEM/F12 with 10% fetal bovine serum and seeded at 24,000 cells per well in 500 μl in 24-well clear tissue culture plates. The following day, the cells were treated with PROTACs in a 5-point concentration curve (100 nM, 33 nM, 11 nM, 3.7 nM, and 1.2 nM) in the presence of 0.01% DMSO. After 72 hours, the wells are aspirated and washed with 500 μl of PBS. The cells are lysed with 100 μl/well 4° C. Cell Lysis Buffer (Catalog #9803; Cell Signaling Technology, Danvers, M A) (20 mM Tris-HCL (pH 7.5), 150 mM NaCl, 1 mM Na2EDTA, 1 mM EGTA, 1% Triton, 2.5 mM sodium pyrophosphate, 1 mM B-glycerophosphate, 1 mM sodium vanadate, 1 ug/ml leupeptin). Lysates were clarified at 16,000×g for 10 minutes, and 2 μg of protein was subjected to SDS-PAGE analysis and followed by immunoblotting according to standard protocols. The antibodies used were ER(X (Cell Signaling Technologies Catalog #8644), and Tubulin (Sigma Catalog #T9026; St. Louis, Mo.). Detection reagents were Clarity Western ECL substrate (Bio-Rad Catalog #170-5060; Hercules, Calif.).

ERα [2] = target: T1, ERα; assay: ERE luciferase reporter gene assay in T47D-KBluc cells (target engagement); assay type: cell-based; design: T47D human breast cancer cells stably transfected with estrogen responsive element/promoter/luciferase reporter gene; host or cells: T47D-KBluc cells; details: 10% FBS, 24 hours, Table 2 VHL centric PROTACs, read-out: IC50
Summary of the method: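 T47D-KBluc breast cancer cells, which carry a stable ERE-luciferase reporter, were grown in RPMI with 10% FBS (about 10 pM estrogen) and exposed to PROTACs for 24 h. The 12-point, 3-fold series ran from 300 nM to 2 pM. Luciferase was read after lysis, and IC50 was fitted from duplicates.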

SMILES | DC50 (ERα [1]) [nM] | Dmax (ERα [1]) [%] | IC50 (ERα [2]) [nM]
Cc1ncsc1-c1ccc(CNC(=O)[C@@H]2C[C@@H](O)CN2C(=O)[C@@H](NC(=O)CN2CCC(N3CC(OCCOc4ccc(Oc5c(-c6ccc(Br)cc6)sc6cc(O)ccc56)cc4)C3)CC2)C(C)(C)C)cc1 [Compound 160, (2S,4R)-1-[(2S)-2-[2-(4-[3-[2-(4-[[2-(4-bromophenyl)-6-hydroxy-1-benzothiophen-3-yl]oxy]phenoxy)ethoxy]azetidin-1-yl]piperidin-1-yl)acetamido]-3,3-dimethylbutanoyl]-4-hydroxy-N-[[4-(4-methyl-1,3-thiazol-5-yl)phenyl]methyl]pyrrolidine-2-carboxamide] | 1 to 10 | > 75 | 6.3
Cc1ncsc1-c1ccc([C@H](C)NC(=O)[C@@H]2C[C@@H](O)CN2C(=O)[C@@H](NC(=O)Cc2ccc(-c3ccn(CCOc4ccc(Oc5c(-c6ccc(F)cc6)sc6cc(O)ccc56)cc4)n3)cc2)C(C)(C)C)cc1 [Compound 141, (2S,4R)-1-[(2S)-2-[2-(4-[1-[2-(4-[[2-(4-fluorophenyl)-6-hydroxy-1-benzothiophen-3-yl]oxy]phenoxy)ethyl]-1H-pyrazol-3-yl]phenyl)acetamido]-3,3-dimethylbutanoyl]-4-hydroxy-N-[(1S)-1-[4-(4-methyl-1,3-thiazol-5-yl)phenyl]ethyl]pyrrolidine-2-carboxamide] | 1 to 10 | > 75 | 1.5
Cc1ncsc1-c1ccc(CNC(=O)[C@@H]2C[C@@H](O)CN2C(=O)[C@@H](NC(=O)COCCN2CCN(CCOc3ccc(Oc4c(-c5ccc(Br)cc5)sc5cc(O)ccc45)cc3)CC2)C(C)(C)C)cc1 [Compound 140, (2S,4R)-1-[(2S)-2-[2-(2-[4-[2-(4-[[2-(4-bromophenyl)-6-hydroxy-1-benzothiophen-3-yl]oxy]phenoxy)ethyl]piperazin-1-yl]ethoxy)acetamido]-3,3-dimethylbutanoyl]-4-hydroxy-N-[[4-(4-methyl-1,3-thiazol-5-yl)phenyl]methyl]pyrrolidine-2-carboxamide] | 1 to 10 | > 75 | 11
Cc1ncsc1-c1ccc(CNC(=O)[C@@H]2C[C@@H](O)CN2C(=O)C(c2cc(OCCN3CCN(CCOc4ccc(Oc5c(-c6ccc(Br)cc6)sc6cc(O)ccc56)cc4)CC3)no2)C(C)C)cc1 (stereo in doubt) [Compound 164, (2S,4R)-1-((S)-2-(3-(2-(4-(2-(4-((2-(4-bromophenyl)-6-hydroxybenzo[b]thiophen-3-yl)oxy)phenoxy)ethyl)piperazin-1-yl)ethoxy)isoxazol-5-yl)-3-methylbutanoyl)-4-hydroxy-N-(4-(4-methylthiazol-5-yl)benzyl)pyrrolidine-2-carboxamide] | 1 to 10 | 50 to 75 | 2.7
Cc1ncsc1-c1ccc(CNC(=O)[C@@H]2C[C@@H](O)CN2C(=O)[C@@H](NC(=O)Cc2ccc(-c3ccn(CCOc4ccc(Oc5c(-c6ccc(F)cc6)sc6cc(O)ccc56)cc4)n3)cc2)C(C)(C)C)cc1 [Compound 121, (2S,4R)-1-[(2S)-2-[2-(4-[1-[2-(4-[[2-(4-fluorophenyl)-6-hydroxy-1-benzothiophen-3-yl]oxy]phenoxy)ethyl]-1H-pyrazol-3-yl]phenyl)acetamido]-3,3-dimethylbutanoyl]-4-hydroxy-N-[[4-(4-methyl-1,3-thiazol-5-yl)phenyl]methyl]pyrrolidine-2-carboxamide] | 1 to 10 | > 75 | 1

Further lines, results first:

DC50 (ERα [1]) [nM] | Dmax (ERα [1]) [%] | IC50 (ERα [2]) [nM] | SMILES
< 1 | > 75 | 0.2 | Cc1ncoc1-c1ccc([C@H](C)NC(=O)[C@@H]2C[C@@H](O)CN2C(=O)[C@@H](NC(=O)COCCOCCOCCOc2ccc(Oc3c(-c4ccc(Br)cc4)sc4cc(O)ccc34)cc2)C(C)(C)C)cc1 [Compound 127, (2S,4R)-1-((S)-14-(4-(2-(4-bromophenyl)-6-hydroxybenzo[b]thiophen-3-yloxy)phenoxy)-2-tert-butyl-4-oxo-6,9,12-trioxa-3-azatetradecane)-4-hydroxy-N-((S)-1-(4-(4-methyloxazol-5-yl)phenyl)ethyl)pyrrolidine-2-carboxamide]
1 to 10 | 50 to 75 | 3.3 | Cc1ncsc1-c1ccc(CNC(=O)[C@@H]2C[C@@H](O)CN2C(=O)[C@@H](NC(=O)COCCOC2CN(CCOc3ccc(Oc4c(-c5ccc(F)cc5)sc5cc(O)ccc45)cc3)C2)C(C)(C)C)cc1 [Compound 117, (2S,4R)-1-((S)-2-(2-(2-(1-(2-(4-(2-(4-fluorophenyl)-6-hydroxybenzo[b]thiophen-3-yloxy)phenoxy)ethyl)azetidin-3-yloxy)ethoxy)acetamido)-3,3-dimethylbutanoyl)-4-hydroxy-N-(4-(4-methylthiazol-5-yl)benzyl)pyrrolidine-2-carboxamide]
1 to 10 | > 75 | 1.4 | C[C@H](NC(=O)[C@@H]1C[C@@H](O)CN1C(=O)[C@@H](NC(=O)COCCOCCN(C)CCOc1ccc(Oc2c(-c3ccc(F)cc3)sc3cc(O)ccc23)cc1)C(C)(C)C)c1ccc(Cl)cc1 [Compound 129]
< 1 | > 75 | 0.3 | Cc1ncsc1-c1ccc([C@H](C)NC(=O)[C@@H]2C[C@@H](O)CN2C(=O)[C@@H](NC(=O)COCCOCCN(C)CCOc2ccc(Oc3c(-c4ccc(F)cc4)sc4cc(O)ccc34)cc2)C(C)(C)C)cc1 [Compound 128, (2S,4R)-1-[(2S)-2-[1-(4[[2-(4-fluorophenyl)-6-hydroxy-1-benzothiophen-3-yl]oxy]phenyl)-4-methyl-1,7,10-trioxa-4-azadodecan-12-amido]-3,3-dimethylbutanoyl]-4-hydroxy-N-[(1S)-1-[4-(4-methyl-1,3-thiazol-5-yl)phenyl]ethyl]pyrrolidine-2-carboxamide]
< 1 | > 75 | 0.1 | Cc1ncoc1-c1ccc([C@H](C)NC(=O)[C@@H]2C[C@@H](O)CN2C(=O)[C@@H](NC(=O)COCCOCCOCCOc2ccc(Oc3c(-c4ccccc4)sc4cc(O)ccc34)cc2)C(C)(C)C)cc1 [Compound 138, (2S,4R)-1-((S)-2-tert-butyl-14-(4-(6-hydroxy-2-phenylbenzo[b]thiophen-3-yloxy)phenoxy)-4-oxo-6,9,12-trioxa-3-azatetradecane)-4-hydroxy-N-((S)-1-(4-(4-methyloxazol-5-yl)phenyl)ethyl)pyrrolidine-2-carboxamide]
